Data: patent US20120295935A1, “MIXED AMINAL PHARMACEUTICAL COMPOSITIONS AND USES THEREOF” (priority 2010, published 2012)
“Also recorded” adds a separate entry of the source.

What was measured:
[1] = system: MC3T3 E1 osteoblast-like cells; experiment: Western blot of eIF2α-p, ATF4, CHOP and caspase 3 proteins in response to thapsigargin; type: cell-based, mouse
Protocol: At higher doses of 10 and 100 nM, the levels of eIF2α-p and ATF4 proteins were elevated (FIG. 3A). Thapsigarin is known to induce apoptosis when administered above a threshold concentration.

MC3T3 cells [2] = experiment: Cell proliferation and death; type: cell-based; conditions: 1 h incubation with 10 nM (mild ER stress)
MC3T3 cells [3] = experiment: mRNA expression levels by real-time PCR; type: cell-based, mouse
Protocol: Responses to Administration of Thapsigargin—Upregulation of transcription factors linked to bone formation as well as PERK: The effects of 10 nM thapsigargin on mRNA expression levels of ISR-linked genes (ATF4, ATF3, and CHOP) as well as genes involved in bone remodeling (Runx2, Osterix, and Rank1), were examined (FIG. 5). […] Out of 4 transcription factors (ATF4, ATF3, Runx2, and Osterix), the level of ATF4 mRNA was elevated 2-4 fold throughout the treatments. […] The mRNA level of type 1 collagen was elevated 5 h and 10 h for T1h (1 h exposure at 10 nM).
Responses to Administration of Salubrinal—In vitro responses to salubrinal: In order to evaluate the effects of salubrinal, MC3T3 E1 osteoblast-like cells and MLO-A5 osteocyte cells (Barragan-Adjemian, C., et al., “Mechanism by which MLO-A5 late osteoblasts/early osteocytes mineralize in culture: similarities with mineralization of lamellar bone,” Calcif. Tissue Int. 79:340-353 (2006)) were incubated with salubrinal at 100 nM-50 μM for 1-24 h. The mRNA levels of the selected genes, TF4, ATF3, Osteocalcin (OCN), and CHOP, were determined by real-time PCR. […] In MC3T3 cells, for instance, the Osteocalcin mRNA level, which is regulated by ATF4 and Runx2 (Xiao et al. 2005), was elevated 11.8±0.2 fold at 10 μM salubrinal in 24 h.

MC3T3 cells [4] = experiment: Phosphorylation of eIF2α kinases (PERK, PKR) and MAP kinases (p-38 MAPK, ERK1/2); type: cell-based, mouse; conditions: 10 nM, 1 h exposure
Protocol: In response to T1h (1 h exposure at 10 nM), the level of phosphorylation of two eIF2α kinases (PERK and PKR), and two MAP kinases (p-38 MAPK and ERK1/2) was examined (FIG. 6).

MC3T3 cells [5] = experiment: mRNA expression levels by real-time PCR; type: cell-based, mouse; conditions: 1-100 nM for 1-24 h

## C/C=C(/C)C(=O)O[C@H]1C(C)=C2[C@H]([C@@H]1OC(=O)CCCCCCC)[C@@](C)(OC(C)=O)C[C@H](OC(=O)CCC)[C@@]1(O)[C@H]2OC(=O)[C@@]1(C)O [thapsigargin]
[1]; 10 nM
  CHOP protein level: started to increase after 3 h
  Pro-caspase 3 level: not significantly altered
  cleaved caspase 3 (active form) level: increased after 24 h
[1]; 10 and 100 nM
  ATF4 protein level: elevated
  eIF2α-p protein level: elevated
[1]; lower dosages below 0.1 nM
  ATF4 protein level: no detectable upregulation
  eIF2α-p protein level: no detectable upregulation
MC3T3 cells [2]
  numbers of live and dead cells (cell number or mortality): does not alter; also recorded: no significant difference
MC3T3 cells [3]; 10 nM
  ATF3 mRNA level: 100-1000 times
  CHOP mRNA level: 10-35 fold
  Osterix mRNA: enhanced at 1 h
  Runx2 mRNA increase: started at 3 h and peaked at 5 h
MC3T3 cells [3]; 10 nM, 1, 2 and 3 h exposures
  ATF4 mRNA level: 2-4 fold
MC3T3 cells [3]; 3 h for T2h and 10 h for T3h, 10 nM
  Rank1 mRNA: significantly up
MC3T3 cells [3]; 5 h and 10 h for T1h (1 h exposure at 10 nM)
  type 1 collagen mRNA level: elevated
MC3T3 cells [4]
  p-ERK1/2 level: not altered; also recorded: unchanged
  p-PERK level: elevated; also recorded: Activation
  p-PKR level: not altered; also recorded: unchanged
  p-p38 MAPK level: elevated; also recorded: Activation
MC3T3 cells [5]
  Osteocalcin mRNA level: did not increase
